Reference: publication PMC6274539, “Photoactivatable Caged Prodrugs of VEGFR-2 Kinase Inhibitors” (Molecules, 2016)
Entries after “also recorded” stand apart in the source; their conditions may differ. Like-named read-outs stand apart in the source and are kept apart here.

How the values were obtained:
PC-3 cells [1] = assay: cellular growth (proliferation) assay, resazurin; assay type: cell-based; details: for antiproliferative effect after UV irradiation: 365 nm, 1.1 kW/m^2, 48 h; for TGI (total growth inhibition) mark: without UV irradiation
Procedure: Growth assays on VEGFR-2 dependent PC-3 cells were performed.
PC-3 cells were purchased from CLS Cell Lines Service GmbH (Eppelheim, Germany). The cells were grown in DMEM:Hams F12 (1:1) medium with 5% FCS. PC-3 cells were incubated in a 5% CO2 humidified atmosphere at 37 °C.
The cells were grown in cell flasks until approximately 90% confluence and then seeded to give 13000 cells in 100 μL per well into 96-well CulturePlates™ (Perkin Elmer). In addition to the test plates, one plate was prepared for reference measurement at day zero. All plates were incubated for 24 h at 37 °C in a humidified atmosphere with 5% CO2. Compounds 1, 3, 4, and 5 were dissolved in 100% DMSO (v/v) and added to the test plates. The final DMSO concentration in the assay was 0.5% (v/v). Viability of the cells in the day zero control plates were determined on the same day without adding any compounds. For viability measurement the resazurin assay was used. The shift in the fluorescence signal was measured at the LS55 Fluorescence spectrometer (Perkin Elmer). For the photoactivation experiments the test plates were irradiated at 365 nm for 5 min (LED source: 8× Nichia NCSU033B, Sahlmann Photochemical Solutions, 50%, 1.1 kW/m^2). Test plates were incubated for further 48 h and cell viability was defined as described above. Measured raw data was converted into percent of cell growth by using the high control (0.5% DMSO (v/v) without compound) and the day zero control. For dose-response studies, 11 different concentrations of compounds were tested in duplicates. IC50 values were calculated using the 4-parameter logarithmic fit option of GraphPad Prism 5.

VEGFR-2 = target: T1, VEGFR-2 (Homo sapiens, UniProt P35968); assay: radiometric 33PanQinase VEGFR-2 kinase assay (ProQinase); assay type: biochemical; details: 10 semi-log concentrations, single samples, 1% DMSO
T1 construct: determined using VEGFR-2 protein kinase by a radiometric ^33PanQinase® assay; purchased ProQinase (Freiburg, Germany)
Procedure: As predicted by molecular modeling, insertion of the protecting group DMNB should diminish the inhibitory activity both of the maleimide 1 and the carbazole 3. […] The IC50 values towards VEGFR-2 were determined (Table 1).
The VEGFR-2 IC50 profile for 1, 3, 4 and 5 was determined using VEGFR-2 protein kinase by a radiometric ^33PanQinase® assay. […] Prior to testing, the compounds were dissolved to prepare 1 × 10^−2 M stock solutions in 100% DMSO. The final DMSO concentration in the reaction cocktails was 1% in all cases. Analyses were performed by ProQinase (Freiburg, Germany).

[2] = photoactivation (uncaging) at 365 nm in DMSO (HPLC, LC-MS); assay type: physicochemical; details: 1 mM in DMSO, 5.4 W, up to 10 min
Source text: A further prerequisite for an application of caged prodrugs is a rapid and quantitative release of active parent compounds by irradiation. To examine this, we investigated the uncaging of 4 and 5 induced by irradiation at 365 nm with 5.4 W (Figure 5). […] Initially released maleimide 1 is converted to the intermediate 2 by proceeding irradiation, which is in line to the previously described instability of 1, (compare Figure 4a). […] Due to UV stability of 3 no other by-products could be detected.
After 0.25, 0.5, 0.75, 1, 2, 3, 5 and 10 min of irradiation samples were taken. Aliquots were diluted 1:5 with methanol and subsequently analyzed by HPLC. Additional to retention time LC-MS was used to proof identity.

PC-3 cells [3] = assay: cellular uptake by fluorescence microscopy (cell staining); assay type: cell-based; details: live PC-3 cells, 10 µM, 30 min, autofluorescence
Procedure: Next, we investigated the cellular bioavailability of the caged prodrugs. For this purpose, we used the autofluorescence of the carbazole 3 and its caged derivative 5. The emission spectra of both compounds are shown in the Supplementary Figure S6. The fluorescence microscopy was used to explore the uptake of the compounds into the cells. Live PC-3 cells were stained with 10 µM solutions of 3 or 5, and then fixed with formalin. Subsequently, the cell nuclei were counterstained with 1 µg/mL DAPI.
PC-3 cells were stained with the carbazole 3 and its caged derivative 5. For this purpose, the cells were seeded to give 15,000 cells in 50 µL per well into 96-well half area microplate (Ref.: 675986, Greiner bio-one, Kremsmünster, Austria). The plate was incubated for 48 h at 37 °C in a humidified atmosphere with 5% CO2. Compounds 3 and 5 were dissolved in DMEM:Hams F12 (1:1) medium with 5% FCS and added to the cells to give the endconcentration of 10 µM, respectively. The cells were incubated with the compounds for 30 min at 37 °C. After that, the cells were washed twice with PBS and fixed with 3.3% formalin for 15 min. […] After 30 min incubation at 37 °C, the cells were washed with PBS and the fluorescence images were taken at the ImageXpress® Micro XL (Molecular Devices, Sunnyvale CA, USA). […]

[4] = Homo sapiens, PC-3, light or radiation study, irradiated at 365 nm, 5 min, 1.1 kW/m^2, cell growth after 48 h, read-out: GI50 after Irradiation
[5] = irradiated at 365 nm, 5 min, 1.1 kW/m^2, cell growth after 48 h, read-out: GI50 after Irradiation

T1 sequence (P35968 20-1356): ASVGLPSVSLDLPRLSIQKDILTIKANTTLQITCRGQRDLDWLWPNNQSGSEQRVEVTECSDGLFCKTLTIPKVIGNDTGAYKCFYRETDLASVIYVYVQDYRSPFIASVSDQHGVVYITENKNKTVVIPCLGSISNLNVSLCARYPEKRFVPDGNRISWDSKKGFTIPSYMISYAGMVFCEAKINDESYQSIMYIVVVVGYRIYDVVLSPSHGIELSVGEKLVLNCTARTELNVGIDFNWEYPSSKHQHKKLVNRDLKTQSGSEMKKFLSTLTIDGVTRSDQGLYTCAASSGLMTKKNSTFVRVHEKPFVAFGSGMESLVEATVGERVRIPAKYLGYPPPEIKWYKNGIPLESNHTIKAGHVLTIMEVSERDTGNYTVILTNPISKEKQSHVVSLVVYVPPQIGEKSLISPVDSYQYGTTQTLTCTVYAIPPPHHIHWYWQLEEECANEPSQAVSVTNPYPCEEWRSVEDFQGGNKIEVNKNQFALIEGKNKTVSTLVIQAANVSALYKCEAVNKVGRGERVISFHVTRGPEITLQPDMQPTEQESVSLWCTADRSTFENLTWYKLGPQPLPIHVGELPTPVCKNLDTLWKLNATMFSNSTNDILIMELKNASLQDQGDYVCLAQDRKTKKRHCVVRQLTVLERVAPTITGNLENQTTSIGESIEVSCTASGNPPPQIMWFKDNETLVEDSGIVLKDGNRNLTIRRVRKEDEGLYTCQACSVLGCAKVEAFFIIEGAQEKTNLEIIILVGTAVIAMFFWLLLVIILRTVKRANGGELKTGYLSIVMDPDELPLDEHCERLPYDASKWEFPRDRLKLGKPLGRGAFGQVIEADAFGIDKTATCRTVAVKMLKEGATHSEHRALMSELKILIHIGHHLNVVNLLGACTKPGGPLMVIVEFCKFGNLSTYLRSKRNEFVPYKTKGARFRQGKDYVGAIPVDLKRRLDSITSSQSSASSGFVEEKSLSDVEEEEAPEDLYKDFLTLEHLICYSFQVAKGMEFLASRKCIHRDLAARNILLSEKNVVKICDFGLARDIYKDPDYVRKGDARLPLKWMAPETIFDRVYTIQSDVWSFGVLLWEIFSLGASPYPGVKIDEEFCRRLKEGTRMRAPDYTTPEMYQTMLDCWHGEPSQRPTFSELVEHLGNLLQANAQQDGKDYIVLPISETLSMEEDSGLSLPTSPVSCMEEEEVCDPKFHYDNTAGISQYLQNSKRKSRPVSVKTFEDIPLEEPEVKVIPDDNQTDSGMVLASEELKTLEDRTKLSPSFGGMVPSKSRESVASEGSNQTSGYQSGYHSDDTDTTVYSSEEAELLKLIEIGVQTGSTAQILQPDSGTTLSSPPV

IC50 (VEGFR-2)	melting point	GI50 (PC-3 cells [1]; [4])	GI50 without Irradiation (PC-3 cells [1]; no UV irradiation, cell growth after 48 h)	photoinduced release of parent compound (uncaging) [2]	GI50 (PC-3 cells [1]; Homo sapiens, PC-3, light or radiation study, 48 h, no UV irradiation, cell growth after 48 h, read-out: GI50 without Irradiation)	GI50 (PC-3 cells [1]; [5])	SMILES	antiproliferative effect after UV irradiation (PC-3 cells [1]; 5 min)	antiproliferative effect without UV irradiation (PC-3 cells [1]; no UV irradiation, 48 h)	concentration at which the cleaved PPG shows toxicity relative to efficacious concentration of the irradiated compound (PC-3 cells [1]; after irradiation, PPG from DMNB-Boc-Ala)	TGI (total growth inhibition) mark (PC-3 cells [1]; 48 h)	cellular uptake (PC-3 cells [3])
–	–	–	–	–	–	–	C[C@H](NC(=O)OC(C)(C)C)C(=O)O [Boc-Ala, reference compound]	does not have any effect on cellular growth	do not show any; also recorded: did not show any antiproliferative effects	–	–	–
4.59 µM	205 °C	0.1 µM	not reached	cleavage of the DMNB PPG	–	–	COc1cc(CN2C(=O)C(c3cc(OC)c(OC)c(OC)c3)=C(c3c[nH]c4ccccc34)C2=O)c([N+](=O)[O-])cc1OC [Compound 4, 1-(4,5-Dimethoxy-2-nitrobenzyl)-3-(1H-indol-3-yl)-4-(3,4,5-trimethoxyphenyl)-1H-pyrrole-2,5-dione]	–	do not show any; also recorded: very marginal antiproliferative activity	approximately 500 fold	not reached even at high concentrations	–
44.8 µM	283 °C	0.22 µM	–	rapidly released	34.6 µM	0.2 µM	COc1cc(CN2C(=O)c3c(c4c5ccccc5[nH]c4c4c(OC)c(OC)c(OC)cc34)C2=O)c([N+](=O)[O-])cc1OC [Compound 5, 2-(4,5-Dimethoxy-2-nitrobenzyl)-5,6,7-trimethoxybenzo[a]pyrrolo[3,4-c]carbazole-1,3(2H,8H)-dione]	–	–	–	not reached even at high concentrations	taken up into the cells, but not within the cell nuclei
–	–	–	–	–	–	50.3 µM	COc1cc(COC(=O)[C@H](C)NC(=O)OC(C)(C)C)c([N+](=O)[O-])cc1OC [DMNB-Boc-Ala, reference compound]	distinct antiproliferative activity	do not show any; also recorded: did not show any antiproliferative effects	–	–	–
